# Laboratory results: patent US20080039531A1, “Compositions, and kits comprising targeted aldehyde or acetal protease inhibitor compounds for treating muscle disorders” (priority 2005, published 2008)
# Entries after “also recorded” stand apart in the source; their conditions may differ.
# Assays:
# [1] = Absorption of leupeptin into plasma after intramuscular injection (FIG. 2); assay type: in vivo, rats; settings: leupeptin 18 mg/kg intramuscular injection in hind-limbs
# Protocol: To determine that leupeptin was effectively being absorbed into plasma following intramuscular (“IM”) administration in hind-limbs of 18 mg/kg, blood was withdrawn at 60, 75, 90, 120, 180 minutes and 24 hours after the IM injection (FIG. 2).
# [2] = test system: Calpain; experiment: Monkey study, intramuscular leupeptin: muscle calpain activities; assay type: in vivo, Cebus apella; settings: right, nerve-repaired opponens and abductor muscles, 12 and 24 weeks
# Description: In order to test the hypothesis that in vivo inhibition of calpains by leupeptin can facilitate neuromuscular recovery by inhibiting denervation atrophy of the skeletal-muscle target after complete peripheral nerve transection and delayed nerve repair (7), a monkey study (Cebus apella) was undertaken. This median-nerve model was chosen to approximate human anatomic and regenerative aspects.
# [3] = Monkey study, oral leupeptin: hematology, blood clotting, serum biochemistry; assay type: in vivo; settings: monkeys, oral leupeptin 3, 6, 12, 18 mg/kg twice daily for 6 months after nerve repair
# Protocol: (§1) Subsequent to the above studies another series of experiments were performed on the monkeys to assess another route of leupeptin administration in these animals (8). In this regard, oral delivery of leupeptin, after median nerve transection and epineural nerve repair, was studied for its potential benefits to neuromuscular recovery. […] When plasma leupeptin concentrations were 3 mg or greater, morphologic and functional motor recovery were facilitated after nerve repair.
# Hematology/blood chemistry. Blood was drawn from the femoral vein at 1, 3, 4, 5, and 7 months postoperatively. Complete blood counts, clotting parameters, and serum chemistries in control animals and in animals after oral leupeptin administration at 3, 6, 12, and 18 mg/kg were quantified. Values were determined for hemoglobin, hematocrit, WBC, RBC, MCV, MCH, MCHC, differential (polymorphonuclear leukocytes, lymphocytes, monocytes, eosinophils, basophils), platelets, prothrombin time, partial thromboplastin time, glucose, urea nitrogen, creatinine, total protein, albumin, total bilirubin, alkaline phosphatase, SGPT, SGOT, lactic dehydrogenase, cholesterol, calcium, phosphorus, sodium, potassium, chloride, A/G, BUN/creatinine, globulin, amylase.
# [4] = test system: opponens pollicis and abductor pollicis myofibers; experiment: Monkey study, oral leupeptin: myofiber diameter after median nerve repair; assay type: in vivo, monkeys; settings: for percentage atrophy: loss of myofiber diameter vs left, unoperated control group: 3 months post nerve repair
# Protocol: as §1
# When expressed as a percentage atrophy, in comparison to the left, unoperated control group, the right control group lost 63 percent of its myofiber diameter; the 3-mg group lost 53% of its myofiber diameter; the 6-mg group 23%; the 12-mg group 11%; and the 18-mg group only 8%.
# [5] = test system: calpain; settings: rats, IP, muscle isolated after 2 hours
# Protocol: An initial series of toxicology experiments was performed in rats to assess the effect of CLA at various doses, on animal viability. […] A series of experiments to examine the ability of CLA vs. leupeptin to decrease activated calpain levels and inhibit muscle wasting was conducted. In the experiment shown in Table 4, rats were utilized to assess the effect of IP injection of either leupeptin or CLA into the hind limb muscle on their ability to inhibit calpain activity. To this end, four rats were injected IP with either leupeptin or CLA. After 2 hours, the muscle was isolated, homogenized, and assayed for remaining calpain activity by the standard assay.
smiles,measurement,setting,value
CC(=O)N[C@@H](CC(C)C)C(=O)N[C@@H](CC(C)C)C(=O)N[C@H](C=O)CCCNC(=N)N [Leupeptin],peak plasma level,[1],4.5 µg/mL
same,time of plasma peak,[1],1 h
same,concentration at 24 h,"[1]; rat, plasma, 24 hr, read-out: plasma level by 24 hr",0 ng/mL
same,mean increase of calpain activities in control animals compared to leupeptin treated animals,[2],50%
same,"hematology, blood clotting and serum biochemistry",[3],no adverse effects; also recorded: no significant differences
same,mean myofiber diameter vs left control group,"[4]; left abductor pollicis, 6 months, 6-mg, 12-mg, 18-mg groups, p<0.01 (FIG. 5)",small but significant increase
same,mean myofiber diameter vs right control group,"[4]; right abductor pollicis, 6 months after nerve repair, 6-mg, 12-mg, 18-mg groups, p<0.01 (FIG. 5)",significant increase
same,"percent atrophy: loss of myofiber diameter vs left, unoperated abductor pollicis","[4]; right abductor pollicis, 6 months after nerve repair, oral leupeptin 3-mg group",30%
same,"percent atrophy: loss of myofiber diameter vs left, unoperated abductor pollicis","[4]; right abductor pollicis, 6 months after nerve repair, oral leupeptin 6-mg group",5%
same,"increase in myofiber diameter (no atrophy) vs left, unoperated abductor pollicis","[4]; right abductor pollicis, 6 months after nerve repair, oral leupeptin 12-mg group",1.2%
same,"increase in myofiber diameter (no atrophy) vs left, unoperated abductor pollicis","[4]; right abductor pollicis, 6 months after nerve repair, oral leupeptin 18-mg group",1.3%
same,mean myofiber diameter vs right control group,"[4]; right opponens pollicis, 3 months after nerve repair, all leupeptin treatment groups, p<0.01 (FIG. 4)",significant increase
same,"percentage atrophy: loss of myofiber diameter vs left, unoperated control group","[4]; right opponens pollicis, oral leupeptin 3-mg group",53%
same,"percentage atrophy: loss of myofiber diameter vs left, unoperated control group","[4]; right opponens pollicis, oral leupeptin 6-mg group",23%
same,"percentage atrophy: loss of myofiber diameter vs left, unoperated control group","[4]; right opponens pollicis, oral leupeptin 12-mg group",11%
same,"percentage atrophy: loss of myofiber diameter vs left, unoperated control group","[4]; right opponens pollicis, oral leupeptin 18-mg group",8%
same,% inhibition of muscle calpain activity,[5]; 75 μmoles,20%
same,% inhibition/μmole,[5],0.26%
same,Fold (effectiveness per μmole relative to leupeptin),[5],1
